Data published in PubChem BioAssay (NCI).
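In this assay, cells in 96-well plates receive the compound at five concentrations for 48 hours. Endpoints are linearly interpolated between the surrounding concentrations. GI50: concentration for 50% inhibition of growth. TGI marks complete inhibition of growth.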

Key:
Assay in all cases: NCI-60 cell line screen, 48 h
[1] = test system: U251 CNS
[2] = test system: SNB-75 CNS
[3] = test system: CAKI-1 renal
[4] = test system: UACC-62 melanoma
[5] = test system: SW-620 colon
[6] = test system: DMS 114 small cell lung
[7] = test system: HT29 colon
[8] = test system: HCT-116 colon
[9] = test system: KM20L2 colon
[10] = test system: LXFL 529 NSCLC
[11] = test system: M14 melanoma
[12] = test system: OVCAR-8 ovarian
[13] = test system: A498 renal
[14] = test system: 786-0 renal
[15] = test system: A549 NSCLC
[16] = test system: LOX IMVI melanoma
[17] = test system: SK-MEL-28 melanoma
[18] = test system: NCI-H226 lung
[19] = test system: NCI-H522 lung
[20] = test system: SK-MEL-2 melanoma
[21] = test system: TK-10 renal
[22] = test system: COLO 205 colon
[23] = test system: NCI-H23 lung
[24] = test system: SF-268 CNS
[25] = test system: HL-60(TB) leukemia
[26] = test system: K-562 leukemia

CC(=O)[CH-]C(C)=O.CC(=O)[CH-]C(C)=O.CC(=O)[CH-]C(C)=O.[In+3]
GI50 [1]: > 100 µM | TGI [1]: > 100 µM | GI50 [2]: > 100 µM | TGI [2]: > 100 µM | GI50 [3]: > 100 µM | TGI [3]: > 100 µM | GI50 [4]: > 100 µM | TGI [4]: > 100 µM | GI50 [5]: > 100 µM | TGI [5]: > 100 µM | GI50 [6]: > 100 µM | TGI [6]: > 100 µM | GI50 [7]: > 100 µM | TGI [7]: > 100 µM | GI50 [8]: > 100 µM | TGI [8]: > 100 µM | GI50 [9]: > 100 µM | TGI [9]: > 100 µM | GI50 [10]: > 100 µM | TGI [10]: > 100 µM | GI50 [11]: > 100 µM | TGI [11]: > 100 µM | GI50 [12]: > 100 µM | TGI [12]: > 100 µM | GI50 [13]: > 100 µM | TGI [13]: > 100 µM | GI50 [14]: > 100 µM | TGI [14]: > 100 µM | GI50 [15]: > 100 µM | TGI [15]: > 100 µM | GI50 [16]: > 100 µM | TGI [16]: > 100 µM | GI50 [17]: > 100 µM | TGI [17]: > 100 µM | GI50 [18]: > 100 µM | TGI [18]: > 100 µM | GI50 [19]: > 100 µM | TGI [19]: > 100 µM | GI50 [20]: > 100 µM | TGI [20]: > 100 µM | GI50 [21]: > 100 µM | TGI [21]: > 100 µM | GI50 [22]: > 100 µM | TGI [22]: > 100 µM | GI50 [23]: > 100 µM | TGI [23]: > 100 µM | GI50 [24]: > 100 µM | TGI [24]: > 100 µM | GI50 [25]: > 100 µM | TGI [25]: > 100 µM | GI50 [26]: > 100 µM | TGI [26]: > 100 µM
